Common to all, as to format: functional
For assay [1], the target named is T1, Orexin/Hypocretin receptor type 1 (Homo sapiens, UniProt O43613).
T1 sequence (O43613 whole entry): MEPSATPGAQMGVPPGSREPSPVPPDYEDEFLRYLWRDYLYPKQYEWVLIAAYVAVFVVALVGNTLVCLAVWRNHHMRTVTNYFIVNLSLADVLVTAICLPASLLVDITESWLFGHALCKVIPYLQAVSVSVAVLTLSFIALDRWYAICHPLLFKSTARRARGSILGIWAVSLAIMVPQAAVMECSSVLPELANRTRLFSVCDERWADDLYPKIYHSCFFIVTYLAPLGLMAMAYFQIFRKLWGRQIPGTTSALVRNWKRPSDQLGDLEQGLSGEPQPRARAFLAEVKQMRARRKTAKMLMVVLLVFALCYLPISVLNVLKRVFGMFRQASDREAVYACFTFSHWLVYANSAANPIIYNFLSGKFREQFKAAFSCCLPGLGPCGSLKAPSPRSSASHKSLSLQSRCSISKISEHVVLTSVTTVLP
As to the kind of experiment: Fluorescence-based cell-based high throughput dose response assay for antagonists of the orexin 1 receptor (OX1R; HCRTR1). [Related pubchem assays (depositor defined):AID434989, AID435008, AID463079, AID485270, AID492963, AID492964, AID492965, AID493232, AID504717, AID504718].

For another assay, the system named is CHO-K1. As to the kind of experiment: Counterscreen for antagonists of the orexin 1 receptor (OX1R; HCRTR1): Homogeneous time resolved fluorescence (HTRF)-based cell-based dose response assay to identify antagonists of the parental CHO-K1 cell line. [Related pubchem assays (depositor defined):AID434989, AID435008, AID463079, AID485270, AID492963, AID492964, AID492965, AID493232, AID504699, AID504701]. As to conditions: Cricetulus griseus. On the technique in general: The purpose of a counterscreen is to sort out artefacts and off-target activity.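 Note: potency for inhibition of ATP-stimulated IP1 production as antagonists.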

Assay [2] can be described thus: Counterscreen for antagonists of the orexin 1 receptor (OX1R; HCRTR1): Fluorescence-based cell-based high throughput dose response assay to identify antagonists of the parental CHO cell line. [Related pubchem assays (depositor defined):AID434989, AID435008, AID463079, AID485270, AID492963, AID492964, AID492965, AID493232, AID504699, AID504701].
Assay [3] concerns the target T1, Orexin/Hypocretin receptor type 1. As to the kind of experiment: Homogeneous Time Resolved Fluorescence (HTRF)-based cell-based high throughput dose response assay for antagonists of the orexin 1 receptor (OX1R; HCRTR1). [Related pubchem assays (depositor defined):AID434989, AID435008, AID463079, AID485270, AID492963, AID492964, AID492965, AID493232, AID504717, AID504718].

The target of assay [4] is T2, Orexin receptor type 2 (Homo sapiens, UniProt O43614).
T2 sequence (O43614 whole entry): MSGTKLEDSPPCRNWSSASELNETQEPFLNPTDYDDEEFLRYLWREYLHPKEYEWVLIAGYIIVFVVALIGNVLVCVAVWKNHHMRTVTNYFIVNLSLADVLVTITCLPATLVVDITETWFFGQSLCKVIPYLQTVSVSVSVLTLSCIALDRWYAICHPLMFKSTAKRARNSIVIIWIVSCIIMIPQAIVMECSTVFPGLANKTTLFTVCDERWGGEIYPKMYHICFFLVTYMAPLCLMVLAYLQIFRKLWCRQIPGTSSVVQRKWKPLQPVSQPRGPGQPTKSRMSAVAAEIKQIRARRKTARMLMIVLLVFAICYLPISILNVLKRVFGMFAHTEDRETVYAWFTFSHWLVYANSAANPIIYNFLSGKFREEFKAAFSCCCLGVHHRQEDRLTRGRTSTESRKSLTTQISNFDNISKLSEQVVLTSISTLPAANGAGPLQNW
As to the kind of experiment: Counterscreen assay for antagonists of the orexin 1 receptor (OX1R; HCRTR1): Fluorescence-based cell-based dose response assay for antagonists of the orexin 2 receptor (OX2R; HCRTR2), run by assay provider.

Assay [5] concerns the target T2, Orexin receptor type 2. As to the kind of experiment: Counterscreen assay for antagonists of the orexin 1 receptor (OX1R; HCRTR1): Homogeneous Time Resolved Fluorescence (HTRF)-based cell-based dose response assay for antagonists of the orexin 2 receptor (OX2R; HCRTR2), run by assay provider.
Assay [6] has as its target T3, Sentrin-specific protease 6 (Homo sapiens, UniProt Q9GZR1).
T3 sequence (Q9GZR1 whole entry): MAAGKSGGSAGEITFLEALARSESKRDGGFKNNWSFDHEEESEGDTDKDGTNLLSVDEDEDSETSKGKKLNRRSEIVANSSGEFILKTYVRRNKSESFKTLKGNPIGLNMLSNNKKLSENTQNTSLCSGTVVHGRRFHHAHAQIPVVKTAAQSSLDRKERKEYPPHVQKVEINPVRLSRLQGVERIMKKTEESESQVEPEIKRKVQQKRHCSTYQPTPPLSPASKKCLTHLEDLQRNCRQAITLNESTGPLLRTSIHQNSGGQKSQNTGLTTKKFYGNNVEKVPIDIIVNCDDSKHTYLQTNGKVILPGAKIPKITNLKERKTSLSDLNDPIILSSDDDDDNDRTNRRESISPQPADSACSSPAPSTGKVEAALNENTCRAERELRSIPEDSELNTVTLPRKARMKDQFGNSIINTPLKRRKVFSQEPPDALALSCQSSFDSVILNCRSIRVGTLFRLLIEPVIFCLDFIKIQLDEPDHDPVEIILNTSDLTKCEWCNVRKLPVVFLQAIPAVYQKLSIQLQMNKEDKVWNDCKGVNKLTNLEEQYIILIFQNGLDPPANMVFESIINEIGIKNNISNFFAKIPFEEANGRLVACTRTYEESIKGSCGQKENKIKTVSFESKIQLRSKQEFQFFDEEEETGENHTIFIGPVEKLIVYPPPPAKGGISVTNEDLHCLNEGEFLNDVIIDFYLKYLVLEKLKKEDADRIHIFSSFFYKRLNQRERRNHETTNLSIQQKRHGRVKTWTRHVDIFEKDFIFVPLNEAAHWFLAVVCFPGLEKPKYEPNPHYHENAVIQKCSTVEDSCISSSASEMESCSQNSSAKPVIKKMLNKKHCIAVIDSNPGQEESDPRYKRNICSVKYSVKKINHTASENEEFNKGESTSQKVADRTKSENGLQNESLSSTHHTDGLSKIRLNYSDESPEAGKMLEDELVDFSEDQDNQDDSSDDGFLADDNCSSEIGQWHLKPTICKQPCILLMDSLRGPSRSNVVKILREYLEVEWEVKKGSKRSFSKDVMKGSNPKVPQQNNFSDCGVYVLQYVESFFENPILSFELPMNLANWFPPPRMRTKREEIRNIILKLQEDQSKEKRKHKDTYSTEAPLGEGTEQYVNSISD
As to the kind of experiment: SAR Analysis of small molecule inhibitors of Sentrin-specific protease 6 (SENP6) using a Luminescent assay. [Related pubchem assays (depositor defined):AID2582, AID2599].

Assay [7] has as its target T4, Sentrin-specific protease 8 (Homo sapiens, UniProt Q96LD8).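 Note: luminescence read-out of SENP8 inhibition, dose-response confirmation following an ultra-high-throughput screen.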
T4 sequence (Q96LD8 whole entry): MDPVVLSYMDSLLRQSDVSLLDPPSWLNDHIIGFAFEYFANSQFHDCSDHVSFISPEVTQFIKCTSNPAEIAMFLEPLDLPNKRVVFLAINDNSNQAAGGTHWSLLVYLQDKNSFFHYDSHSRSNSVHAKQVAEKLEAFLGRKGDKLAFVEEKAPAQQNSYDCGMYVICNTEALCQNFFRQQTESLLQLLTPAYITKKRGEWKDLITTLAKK

The target in assay [8] is T3, Sentrin-specific protease 6.
In assay [9] the target is T5, Caspase-3 (Homo sapiens, UniProt P42574).
T5 sequence (P42574 whole entry): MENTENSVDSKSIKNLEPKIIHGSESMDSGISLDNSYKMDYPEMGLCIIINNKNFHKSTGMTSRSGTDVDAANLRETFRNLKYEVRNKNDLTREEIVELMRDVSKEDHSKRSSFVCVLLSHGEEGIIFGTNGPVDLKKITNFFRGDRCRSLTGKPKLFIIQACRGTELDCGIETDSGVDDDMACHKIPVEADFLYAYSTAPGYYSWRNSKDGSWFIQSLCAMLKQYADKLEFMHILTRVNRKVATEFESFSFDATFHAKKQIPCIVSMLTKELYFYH

The target of assay [10] is T6, Sentrin-specific protease 7 (Homo sapiens, UniProt Q9BQF6).
T6 sequence (Q9BQF6 whole entry): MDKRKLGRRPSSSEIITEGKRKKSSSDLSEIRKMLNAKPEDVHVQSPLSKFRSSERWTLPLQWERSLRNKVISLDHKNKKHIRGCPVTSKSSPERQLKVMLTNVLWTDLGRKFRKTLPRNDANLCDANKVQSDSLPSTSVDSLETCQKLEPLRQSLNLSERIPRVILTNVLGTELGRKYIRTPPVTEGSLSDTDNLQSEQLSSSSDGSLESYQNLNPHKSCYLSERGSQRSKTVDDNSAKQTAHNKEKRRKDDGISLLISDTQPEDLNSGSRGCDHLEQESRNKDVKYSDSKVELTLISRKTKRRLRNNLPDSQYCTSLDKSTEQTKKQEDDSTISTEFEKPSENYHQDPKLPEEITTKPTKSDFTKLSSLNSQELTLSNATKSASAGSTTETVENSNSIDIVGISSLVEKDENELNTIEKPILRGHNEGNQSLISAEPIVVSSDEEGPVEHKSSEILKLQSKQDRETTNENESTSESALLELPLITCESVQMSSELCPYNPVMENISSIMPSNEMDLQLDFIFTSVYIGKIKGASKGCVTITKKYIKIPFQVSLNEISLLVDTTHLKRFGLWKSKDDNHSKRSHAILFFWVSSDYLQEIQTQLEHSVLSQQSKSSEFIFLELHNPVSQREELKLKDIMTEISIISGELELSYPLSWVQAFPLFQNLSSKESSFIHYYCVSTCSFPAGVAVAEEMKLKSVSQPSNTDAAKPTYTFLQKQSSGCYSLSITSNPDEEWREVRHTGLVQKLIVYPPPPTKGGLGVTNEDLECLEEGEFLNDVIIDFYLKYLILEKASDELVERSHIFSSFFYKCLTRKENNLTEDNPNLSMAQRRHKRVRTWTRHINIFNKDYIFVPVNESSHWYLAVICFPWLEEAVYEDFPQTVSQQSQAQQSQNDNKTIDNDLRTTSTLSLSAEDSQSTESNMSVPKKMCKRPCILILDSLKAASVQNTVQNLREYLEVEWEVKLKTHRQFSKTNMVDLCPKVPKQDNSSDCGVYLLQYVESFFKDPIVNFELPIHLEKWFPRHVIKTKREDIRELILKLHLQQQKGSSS
As to the kind of experiment: SENP7 protease inhibitors, SAR follow-up, biochemical, luminescence (AID 504497).

In assay [11] the target is T5, Caspase-3. As to the kind of experiment: SAR Analysis of small molecule inhibitors of Sentrin-specific proteases (SENPs) using a Caspase-3 Selectivity assay. [Related pubchem assays (depositor defined):AID2540, AID2599, AID434973, AID489001].
Assay [12] concerns the target T6, Sentrin-specific protease 7.

Active and inactive are the calls of the source.

For `Cc1c(C(=O)Nc2ccc(N3CCOCC3)cc2)oc2ccccc12`, the IC50 (commonly the midpoint of a concentration-inhibition curve) is 1.46 µM (active) in assay [1]; > 66.2 µM (inactive) in the assay on CHO-K1; > 49.8 µM (inactive) in [2]; 0.277 µM (active) in assay [3]; > 88.8 µM (inactive) at Orexin receptor type 2 [4]; > 50 µM (inactive) at Orexin receptor type 2 [5].

As to `Fc1ccc(COc2ccc(C(=S)N3CCCC3)cc2)cc1`, the IC50 in assay [6] is 1.68 µM (active); in assay [7] it was 2.46 µM (active); in assay [8], 8.99 µM (active); at Caspase-3 [9] it was 7.14 µM (active); in assay [10] it was 2.16 µM (active); on Caspase-3 [11], 1.31 µM (active). Also, the IC50 in [12] is 5.33 µM (active).

For the molecule `O=C(N/N=C/c1c(Cl)[nH]c2ccccc12)c1sc2ccccc2c1Cl`, the IC50 is 3.23 µM (active) in [1]; > 66.2 µM (inactive) with CHO-K1; > 49.7 µM (inactive) in [2]; 2.14 µM (active) in assay [3]; > 88.8 µM (inactive) at Orexin receptor type 2 [4]; 6.88 µM (active) on Orexin receptor type 2 [5].
